Laboratory results: patent EP2397458A1, “Organic salts and co-crystals of phenylbutyric acid” (Lunamed AG, priority 2010, dated 2011)
Where a name gives a salt, the structure may show the parent alone.

Assays:
[1] = Aqueous solubility determination (saturated solution, HPLC; pH of saturated solution); type: physicochemical; details: for solubility at 24 h: doubly distilled water, after 24 h of equilibration at 25°C; for pH of the corresponding saturated solution: saturated aqueous solution after 24 h at 25°C
Experimental: (§1) For this measurement approximately 1.0 mL of doubly distilled water was added to 18 mg of the substance according Example 1 to be measured. The resulting suspension was equilibrated in a temperature-controlled Eppendorf Thermomixer Comfort shaker for 24 h at 25°C at a shaking rate of 600 rpm. The solid phase was recovered by filter centrifugation (0.10-µm PVDF membrane) and examined by FT-Raman spectroscopy. Concentrations in the filtrate (i.e., saturated solutions) were determined by HPLC (see below). The pH of the saturated solution was determined with a Metrohm 713 pH meter. HPLC: TSP instrument with P4000 pump, AS3000 autosampler, SCM1000 degasser, UV3000 detector, and PC1000 Vers. 4.1 software. Table 4: HPLC method used for solubility determinations.
as §1, with “8:” for “4:”

[2] = DVS / hygroscopy measurement; type: physicochemical; details: for hygroscopy: DVS humidity program 50 → 95 → 0 → 50% r.h.
Experimental: For the measurement of hygroscopy of the salt a Projekt Messtechnik Sorptions Prüfsystem SPS 11 - 100n was used. (Hygroscopy of the phenylbutyric acid for comparison was measured with the Surface Measurement Systems DVS-1 ). The salt sample was placed on an aluminium (SPS 11) holder (for phenylbutyric acid on a platinum holder (DVS-1)) on top of a microbalance and allowed to equilibrate for 2 h at 50% r.h. before starting the pre-defined humidity program: • (1)2hat50%r.h. • (2) 50 → 95% r.h. (5%/h); 5 h at 95% r.h. • (3) 95 → 0% r.h. (5%/h); 5 h at 0% r.h. • (4) 0 → 50% r.h. (5%/h); 2 h at 50% r.h.
For the measurement of hygroscopy of the salt a Projekt Messtechnik Sorptions Prüfsystem SPS 11 - 100n was used. (Hygroscopy of the phenylbutyric acid for comparison was measured with the Surface Measurement Systems DVS-1). The salt sample was placed on an aluminium (SPS 11) holder (for phenylbutyric acid on a platinum holder (DVS-1)) on top of a microbalance and allowed to equilibrate for 2 h at 50% r.h. before starting the pre-defined humidity program: • (1)2hat50%r.h. • (2) 50 → 95% r.h. (5%/h); 5 h at 95% r.h. • (3) 95 → 0% r.h. (5%/h); 5 h at 0% r.h. • (4) 0 → 50% r.h. (5%/h); 2 h at 50% r.h. […] However, raising the relative humidity further from 80 to 95% r.h. results in a steep gain of -10 wt.-%. Upon lowering the relative humidity, the mass decreases only slightly (by -2.2 w1.-%) until a relative humidity of -60 % r.h. is reached. Then a steep loss of -10 wt.-% occurs until the mass of the starting material is reached at -45% r.h. […] Upon lowering the relative humidity from 50 to 0% r.h. a mass loss of -0.3 wt.-% is observed, but it is fully reversible. At the end of the cycle the sample had essentially the same mass as the starting material. […] A sesquihydrate of the hemi-benzathine salt (1 :0.5:1.5 phenylbutyrate:benzathine:H2O) has a theoretical water content of 9.5 wt.-%. A reversible hydrate formation occurred during the DVS experiment.

| Compound | solubility at 24 h ([1]; value corresponds to a hydrate of the benzathine salt, not to the anhydrous form) [µg/mL] | pH of the corresponding saturated solution ([1]; hydrate formed and precipitated during equilibration) | gradual mass gain ([2]; DVS, increasing the relative humidity from 50 to 80% r.h.) [wt.-%] | mass loss ([2]; DVS, lowering the relative humidity from 50 to 0% r.h., fully reversible) [wt.-%] | mass decrease ([2]; DVS, lowering the relative humidity from 95% until -60 % r.h. is reached) [w1.-%] | steep loss (mass) ([2]; DVS, lowering the relative humidity from -60 % r.h. until -45% r.h. (mass of starting material reached)) [wt.-%] | steep gain (mass) ([2]; DVS, raising the relative humidity from 80 to 95% r.h.) [wt.-%] | pH of the corresponding saturated solution [1] | solubility at 24 h ([1]; water, solid residue Raman spectrum unchanged) [µg/mL] | hygroscopy [2] | hygroscopy ([2]; listed as 4-Phenylbutyrate-Mono-Benethamine salt) |
| --- | --- | --- | --- | --- | --- | --- | --- | --- | --- | --- | --- |
| O=C(O)CCCc1ccccc1 [Example 2, 4-Phenylbutyrate-Hemi-Benzathine salt] | 1700 | 6.2 | -1.3 | -0.3 | -2.2 | -10 | -10 | – | – | – | – |
| O=C(O)CCCc1ccccc1 [Example 1, 4-Phenylbutyrate-Mono-Benethamine salt] | – | – | – | – | – | – | – | 7.2 | 1900 | not hygroscopic | non-hygroscopic |
